# Assays:
# Assay in all cases: NCI-60 screening, one-dose (10 µM) and five-dose, SRB
# SNB-19 = type: cell-based
# M14 = type: cell-based, human
# OVCAR-8 = type: cell-based, human
# MCF7 = type: cell-based, human
# HOP-62 = type: cell-based, human
# OVCAR-5 = type: cell-based, human; settings: five-dose, OVCAR-5
# SF-539 = type: cell-based, human; settings: five-dose, SF-539
# HOP-92 = type: cell-based, human
# UACC-62 = type: cell-based
# U251 = type: cell-based, human
# MOLT-4 = type: cell-based, human
# CCRF-CEM = type: cell-based, human
# NCI/ADR-RES = type: cell-based, human
# DU-145 = type: cell-based, human
# UACC-257 = type: cell-based, human; settings: Homo sapiens
# [1] = Homo sapiens, five-dose, SNB-19
# [2] = Homo sapiens, five-dose, OVCAR-8
# [3] = Homo sapiens, five-dose, HOP-62
# [4] = Homo sapiens, read-out: LC50 (the source's name)
# [5] = Homo sapiens, five-dose, HOP-92
# [6] = Homo sapiens, five-dose, UACC-62
# [7] = Homo sapiens, U-251, five-dose, U251
# [8] = Homo sapiens, five-dose, MOLT-4
# [9] = Homo sapiens, five-dose, read-out: LC50 (the source's name)
# [10] = Homo sapiens, five-dose, DU-145
smiles,measurement,setting,value
"Cc1nc(SCC(=O)N2CCN(c3cc4c(cc3F)c(=O)c(C(=O)O)cn4C3CC3)CC2)sc1C(=O)/C=C/c1cccc(F)c1 [Compound 4d, (E)-1-Cyclopropyl-6-fluoro-7-(4-(2-((5-(3-(3-fluorophenyl)acryloyl)-4-methylthiazol-2-yl)thio)acetyl)piperazin-1-yl)-4-oxo-1,4-dihydroquinoline-3-carboxylic Acid]",activity at 10 µM,"SNB-19; Homo sapiens, 10 μM, SNB-19, CNS Cancer, read-out: Growth percentage",12.2%
same,GI50,SNB-19; [1],6.9 µM
same,IC50,SNB-19; [1],28.2 µM
same,CC50,"SNB-19; Homo sapiens, five-dose, SNB-19, read-out: LC50 (the source's name)",> 100 µM
same,TGI,"SNB-19; five-dose, SNB-19",100.0 µM
same,activity at 10 µM,"M14; Homo sapiens, 10 μM, M14, Melanoma, read-out: Growth percentage",-15.3%
same,GI50,"M14; Homo sapiens, five-dose, M14",12 µM
same,IC50,"M14; Homo sapiens, five-dose, M14",> 100 µM
same,CC50,"M14; Homo sapiens, five-dose, M14, read-out: LC50 (the source's name)",> 100 µM
same,TGI,"M14; five-dose, M14",100.0 µM
same,activity at 10 µM,"OVCAR-8; Homo sapiens, 10 μM, OVCAR-8, Ovarian Cancer, read-out: Growth percentage",35.2%
same,GI50,OVCAR-8; [2],> 100 µM
same,IC50,OVCAR-8; [2],> 100 µM
same,CC50,"OVCAR-8; Homo sapiens, five-dose, OVCAR-8, read-out: LC50 (the source's name)",> 100 µM
same,TGI,"OVCAR-8; five-dose, OVCAR-8",100.0 µM
same,activity at 10 µM,"MCF7; Homo sapiens, MCF7, 10 μM, MCF7, Breast Cancer, read-out: Growth percentage",-57.6%
same,GI50,"MCF7; Homo sapiens, five-dose, MCF7",0.49 µM
same,IC50,"MCF7; Homo sapiens, five-dose, MCF7",0.69 µM
same,CC50,"MCF7; Homo sapiens, five-dose, MCF7, read-out: LC50 (the source's name)",> 100 µM
same,TGI,"MCF7; five-dose, MCF7",100.0 µM
same,activity at 10 µM,"HOP-62; Homo sapiens, HOP-62, 10 μM, HOP-62, Non-Small-Cell Lung Cancer, read-out: Growth percentage",-55.3%
same,GI50,HOP-62; [3],7.4 µM
same,IC50,HOP-62; [3],72.4 µM
same,CC50,"HOP-62; Homo sapiens, five-dose, HOP-62, read-out: LC50 (the source's name)",> 100 µM
same,TGI,"HOP-62; five-dose, HOP-62",100.0 µM
same,GI50,OVCAR-5; Homo sapiens,> 100 µM
same,IC50,OVCAR-5; Homo sapiens,> 100 µM
same,CC50,OVCAR-5; [4],> 100 µM
same,TGI,OVCAR-5,100.0 µM
same,GI50,SF-539; Homo sapiens,2 µM
same,IC50,SF-539; Homo sapiens,4.1 µM
same,CC50,SF-539; [4],> 100 µM
same,TGI,SF-539,100.0 µM
same,activity at 10 µM,"HOP-92; Homo sapiens, 10 μM, HOP-92, Non-Small-Cell Lung Cancer, read-out: Growth percentage",91.9%
same,GI50,HOP-92; [5],> 100 µM
same,IC50,HOP-92; [5],> 100 µM
same,LC50 (concentration killing 50% of cells),HOP-92; [5],> 100 µM
same,TGI,"HOP-92; five-dose, HOP-92",100.0 µM
same,activity at 10 µM,"UACC-62; Homo sapiens, 10 μM, UACC-62, Melanoma, read-out: Growth percentage",33.1%
same,GI50,UACC-62; [6],25.7 µM
same,IC50,UACC-62; [6],> 100 µM
same,CC50,"UACC-62; Homo sapiens, five-dose, UACC-62, read-out: LC50 (the source's name)",> 100 µM
same,TGI,"UACC-62; five-dose, UACC-62",100.0 µM
same,activity at 10 µM,"U251; Homo sapiens, U-251, 10 μM, U251, CNS Cancer, read-out: Growth percentage",-7.6%
same,GI50,U251; [7],> 100 µM
same,IC50,U251; [7],> 100 µM
same,CC50,"U251; Homo sapiens, U-251, five-dose, U251, read-out: LC50 (the source's name)",> 100 µM
same,TGI,"U251; five-dose, U251",100.0 µM
same,activity at 10 µM,"MOLT-4; Homo sapiens, 10 μM, MOLT-4, Leukemia, read-out: Growth percentage",0.79%
same,GI50,MOLT-4; [8],3.4 µM
same,IC50,MOLT-4; [8],4.8 µM
same,LC50 (concentration killing 50% of cells),MOLT-4; [8],53.7 µM
same,TGI,"MOLT-4; five-dose, MOLT-4",0.34 µM
same,activity at 10 µM,"CCRF-CEM; Homo sapiens, 10 μM, Leukemia, read-out: Growth percentage",17.1%
same,GI50,"CCRF-CEM; Homo sapiens, five-dose",2.88 µM
same,IC50,"CCRF-CEM; Homo sapiens, five-dose",4.37 µM
same,CC50,CCRF-CEM; [9],> 100 µM
same,TGI,CCRF-CEM; five-dose,4.3 µM
same,activity at 10 µM,"NCI/ADR-RES; Homo sapiens, 10 μM, Ovarian Cancer, read-out: Growth percentage",110%
same,GI50,"NCI/ADR-RES; Homo sapiens, five-dose",> 100 µM
same,IC50,"NCI/ADR-RES; Homo sapiens, five-dose",> 100 µM
same,CC50,NCI/ADR-RES; [9],> 100 µM
same,TGI,NCI/ADR-RES; five-dose,100.0 µM
same,activity at 10 µM,"DU-145; Homo sapiens, 10 μM, DU-145, Prostate Cancer, read-out: Growth percentage",73.7%
same,GI50,DU-145; [10],> 100 µM
same,IC50,DU-145; [10],> 100 µM
same,CC50,"DU-145; Homo sapiens, five-dose, DU-145, read-out: LC50 (the source's name)",> 100 µM
same,TGI,"DU-145; five-dose, DU-145",100.0 µM
same,activity at 10 µM,"UACC-257; 10 μM, UACC-257, Melanoma, read-out: Growth percentage",53.9%
same,GI50,"UACC-257; five-dose, UACC-257",46.8 µM
same,IC50,"UACC-257; five-dose, UACC-257",> 100 µM
same,CC50,"UACC-257; five-dose, UACC-257, read-out: LC50 (the source's name)",> 100 µM

# — publication PMC12655637, “Design, Synthesis, and Mechanistic Study of Novel Ciprofloxacin/Thiazole Chalcone Hybrids as Potential Anticancer Agents” (Pharmaceuticals, 2025)
